Laboratory results taken from patent US20250121024A1, “COMBINED USE OF IMIQUIMOD AND A CASEIN HYDROLYSATE FOR THE TREATMENT OF CONDYLOMA” (NTD LABS, S.L.U., priority 2021, published 2025).

System: condyloma
Assay: Controlled, observational clinical trials of topical 5% imiquimod, oral casein hydrolysate and their combination in patients suffering from condyloma
Type: in vivo, human
Details: for Total resolution rate of condyloma (%): percentage of patients with total resolution
Procedure: The efficacy of the combination of imiquimod and a casein hydrolysate, according to the characteristics defined in the present invention, for the treatment of patients with condyloma was evaluated. Specifically, it was evaluated whether oral supplementation with the casein hydrolysate in patients treated with topical 5% imiquimod produced an improvement in treatment efficacy (rate of complete resolution of condyloma) and/or reduced recurrences (rate of recurrences) after the treatment.
A controlled, observational clinical trial was carried out, which included 44 female patients suffering from condyloma, who were divided into two groups: • Imiquimod group (I) (24 patients): treated with 5% imiquimod cream (3 times per week for up to 16 weeks). • Imiquimod+casein hydrolysate group (I+C) (20 patients): treated with 5% imiquimod cream (3 times per week for up to 16 weeks) plus oral casein hydrolysate (6 g once per day, for 6 months).
Likewise, a controlled, observational clinical trial was carried out with 20 patients suffering from condyloma (Group casein hydrolysate (C)) who were treated only with oral casein hydrolysate for 6 months (6 grams, once per day).
A commercially available casein hydrolysate (HuPaVir®) and a commercially available 5% imiquimod cream (Aldara® 5% cream) were used in the study.
In particular, the evaluation of patients at 4, 8, 12 and 16 weeks after starting treatment is included, as well as after 6 months (for group C some points are not available), wherein the percentage of patients with total resolution of condyloma during treatment (up to 16 weeks) and the recurrence rate 6 months after starting the treatment is reported.

CC(C)Cn1cnc2c(N)nc3ccccc3c21 [I, 1-(2-methylpropyl)-1H-imidazo[4,5-c]quinoline-4-amine]
Total resolution rate of condyloma (%) (4 weeks after starting treatment): 8.33% | Recurrence rate (%) (6 months after starting the treatment): 14.3% | Total resolution rate of condyloma (%) (8 weeks after starting treatment): 28.57% | Total resolution rate of condyloma (%) (12 weeks after starting treatment): 58.33% | Total resolution rate of condyloma (%) (12 weeks after starting treatment, listed as imiquimod): 58% | Total resolution rate of condyloma (%) (16 weeks after starting treatment): 72.72%
